Like-named read-outs stand apart in the source and are kept apart here.
How the values were obtained:
[1] = target: hA2b/CHO (Homo sapiens (Human), UniProt P29275); assay: cAMP inhibition assay in hA2b/CHO cells, 10 μM adenosine; format: cell-based;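 also: cells exposed to compound 30 min at 37 °C, then stimulated with adenosine a further 30 min, cAMP read after 60 min at room temperature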
Protocol: (§1) hA2a/CHO, hA2b/CHO, hA3/CHO and mA2a/CHO (Genscript) were plated at 5×10^3 cells/well into 384-well polystyrene plates at the day of experiment. Compounds were pre-incubated with cells for 30 min at 37° C., 5% CO2. Then 10 μM adenosine was added to the cells and incubated for 30 min at 37° C., 5% CO2. Detection reagent (CISBIO) was added and the plates were incubated for 60 min at room temperature. The signal was captured by Envision.

[2] = target: hADORA1/CHO (hA1 expressing) cells (Homo sapiens (Human), UniProt P30542); assay: cell-based; conditions: 10 μM adenosine
[3] = target: mA2a/CHO (Mus musculus (Mouse), UniProt Q60613); assay: cAMP inhibition assay in mA2a/CHO cells, 10 μM adenosine; format: cell-based;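 also: compounds preincubated 30 min at 37 °C before the adenosine challenge, then 30 min further stimulation, readout after 60 min detection reagent incubation at room temperature in 384-well plates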
Protocol: as §1

[4] = target: hA2a/CHO (Homo sapiens (Human), UniProt P29274); assay: cAMP inhibition assay in hA2a/CHO cells, 10 μM adenosine; format: cell-based;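 also: compounds added to cells 30 min ahead of adenosine, then a further 30 min at 37 °C with adenosine before cAMP detection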
Protocol: as §1

[5] = read-out: cAMP & FLIPR IC50 (nM) hA2b
[6] = FLIPR inhibition, read-out: cAMP & FLIPR IC50 (nM) hA1
[7] = read-out: cAMP & FLIPR IC50 (nM) mA2a
[8] = read-out: cAMP & FLIPR IC50 (nM) hA2a
[9] = cAMP & FLIPR IC50 (nM) hA1, FLIPR inhibition

Chain of hA2b/CHO (P29275 whole entry): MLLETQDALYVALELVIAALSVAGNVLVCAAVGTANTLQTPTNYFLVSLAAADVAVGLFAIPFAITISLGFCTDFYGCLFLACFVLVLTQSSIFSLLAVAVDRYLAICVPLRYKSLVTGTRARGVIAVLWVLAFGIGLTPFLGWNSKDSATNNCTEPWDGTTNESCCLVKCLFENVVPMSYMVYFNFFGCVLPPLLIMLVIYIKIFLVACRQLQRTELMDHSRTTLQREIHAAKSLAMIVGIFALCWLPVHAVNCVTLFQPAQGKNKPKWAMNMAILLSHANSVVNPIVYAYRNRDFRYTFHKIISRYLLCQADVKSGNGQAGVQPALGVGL
Chain of mA2a/CHO (Q60613 whole entry): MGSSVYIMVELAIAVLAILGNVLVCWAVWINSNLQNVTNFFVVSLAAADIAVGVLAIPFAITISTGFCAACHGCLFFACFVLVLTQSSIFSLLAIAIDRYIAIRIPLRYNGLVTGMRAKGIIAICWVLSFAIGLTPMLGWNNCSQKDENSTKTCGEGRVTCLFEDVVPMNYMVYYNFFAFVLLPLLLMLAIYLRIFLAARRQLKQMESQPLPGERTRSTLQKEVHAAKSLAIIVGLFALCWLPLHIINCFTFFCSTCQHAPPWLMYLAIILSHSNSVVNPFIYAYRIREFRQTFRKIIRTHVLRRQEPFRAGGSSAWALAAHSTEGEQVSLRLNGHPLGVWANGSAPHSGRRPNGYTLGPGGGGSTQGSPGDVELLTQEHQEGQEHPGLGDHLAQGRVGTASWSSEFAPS
Chain of hA2a/CHO (P29274 whole entry): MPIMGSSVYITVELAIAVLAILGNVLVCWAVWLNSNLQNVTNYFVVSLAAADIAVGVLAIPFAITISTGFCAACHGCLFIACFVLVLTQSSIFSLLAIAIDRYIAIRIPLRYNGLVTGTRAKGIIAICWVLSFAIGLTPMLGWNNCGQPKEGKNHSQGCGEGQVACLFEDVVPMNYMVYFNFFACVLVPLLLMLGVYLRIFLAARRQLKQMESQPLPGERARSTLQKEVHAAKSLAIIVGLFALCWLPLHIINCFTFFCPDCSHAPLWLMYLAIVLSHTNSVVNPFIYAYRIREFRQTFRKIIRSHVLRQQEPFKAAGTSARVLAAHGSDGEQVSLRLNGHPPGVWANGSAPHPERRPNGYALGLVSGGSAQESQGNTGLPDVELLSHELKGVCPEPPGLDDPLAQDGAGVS
Chain of hADORA1/CHO (hA1 expressing) cells (P30542 whole entry): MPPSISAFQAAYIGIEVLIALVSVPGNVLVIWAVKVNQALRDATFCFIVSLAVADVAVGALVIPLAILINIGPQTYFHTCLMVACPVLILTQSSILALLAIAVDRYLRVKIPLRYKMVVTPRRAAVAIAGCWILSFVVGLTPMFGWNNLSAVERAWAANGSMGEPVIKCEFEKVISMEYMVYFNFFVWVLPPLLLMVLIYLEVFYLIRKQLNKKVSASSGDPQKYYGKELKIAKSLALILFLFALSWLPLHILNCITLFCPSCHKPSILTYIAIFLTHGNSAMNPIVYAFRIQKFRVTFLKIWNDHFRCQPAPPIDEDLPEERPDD

SMILES	IC50 [1, 5] [nM]	IC50 [2, 6] [nM]	IC50 [3, 7] [nM]	IC50 [4, 8] [nM]	IC50 ([1]; cAMP & FLIPR IC50 (nM) hA2b) [nM]	IC50 [2, 9] [nM]	IC50 ([3]; cAMP & FLIPR IC50 (nM) mA2a) [nM]	IC50 ([4]; cAMP & FLIPR IC50 (nM) hA2a) [nM]
Cc1cnc2ccc(-c3nc(C(=O)NCCc4nccn4C)c(N)nc3-c3ncco3)cn12 [Example 205, 3-amino-N-(2-(1-methyl-1H-imidazol-2-yl)ethyl)-6-(3-methylimidazo[1,2-a]pyridin-6-yl)-5-(oxazol-2-yl)pyrazine-2-carboxamide]	67	153	7.5	2				
CCc1cnn2ccc(-c3nc(C(=O)NC[C@H]4CCCN4C)c(N)nc3-c3ncco3)cc12 [Example 128, (R)-3-amino-6-(3-ethylpyrazolo[1,5-a]pyridin-5-yl)-N-((1-methylpyrrolidin-2-yl)methyl)-5-(oxazol-2-yl)pyrazine-2-carboxamide]	≥ 10000	10000	410	63				
Cn1cc(-c2nc(C(=O)NCc3c(F)cccc3Cl)c(N)nc2-c2ncco2)ccc1=O [Example 110, 3-amino-N-(2-chloro-6-fluorobenzyl)-6-(1-methyl-6-oxo-1,6-dihydropyridin-3-yl)-5-(oxazol-2-yl)pyrazine-2-carboxamide]	11	31	1	0.7				
COc1cc(F)ccc1CNC(=O)c1nc(-c2cc(C)nc(C)c2)c(-c2ccc(F)cc2)nc1N [Example 52, 3-amino-6-(2,6-dimethylpyridin-4-yl)-N-(4-fluoro-2-methoxybenzyl)-5-(4-fluorophenyl)pyrazine-2-carboxamide]	≥ 10000	2630	5960	89				
Cc1cnc2ccc(-c3nc(C(=O)NCCOC(F)(F)F)c(N)nc3-c3ncco3)cn12 [Example 148, 3-amino-6-(3-methylimidazo[1,2-a]pyridin-6-yl)-5-(oxazol-2-yl)-N-(2-(trifluoromethoxy)ethyl)pyrazine-2-carboxamide]	99	69	1.1	0.5				
CCNC(=O)c1nc(-c2ccc3ncc(C)n3c2)c(-c2ncco2)nc1N [Example 132, 3-amino-N-ethyl-6-(3-methylimidazo [1,2-a]pyridin-6-yl)-5-(oxazol-2-yl) pyrazine-2-carboxamide]	258	10000	65	13				
Cc1cc(-c2nc(C(=O)NCc3ccccc3Br)c(N)nc2-c2ccc(F)cc2)cc(C)n1 [Example 80, 3-amino-N-(2-bromobenzyl)-6-(2,6-dimethylpyridin-4-yl)-5-(4-fluorophenyl) pyrazine-2-carboxamide]	4170	1400	158	44				
COCCn1cc(-c2nc(C(=O)NCc3c(F)cccc3F)c(N)nc2-c2ncco2)ccc1=O [Example 103, 3-amino-N-[(2,6-difluorophenyl)methyl]-6-[1-(2-methoxyethyl)-6-oxo-1,6-dihydropyridin-3-yl]-5-(1,3-oxazol-2-yl)pyrazine-2-carboxamide]	2130	272	16	38				
Cn1cc(-c2nc(C(=O)NCc3ccccc3F)c(N)nc2-c2ncco2)ccc1=O [Example 109, 3-amino-N-(2-fluorobenzyl)-6-(1-methyl-6-oxo-1,6-dihydropyridin-3-yl)-5-(oxazol-2-yl)pyrazine-2-carboxamide]	240	486	20	13				
Cc1cc(-c2nc(C(=O)NCc3ccccc3C)c(N)nc2-c2ccc(F)cc2)cc(C)n1 [Example 81, 3-amino-6-(2,6-dimethylpyridin-4-yl)-5-(4-fIuorophenyl)-N-(2-methylbenzyl) pyrazine-2-carboxamide]	≥ 10000	4750	301	98				
Cc1cnc2ccc(-c3nc(C(=O)NC[C@@H]4CCN(C(=O)C5CC5)C4)c(N)nc3-c3ncco3)cn12 [Cmpd. 221, 3-amino-N-[[(3S)-1-cyclopropanecarbonylpyrrolidin-3-yl]methyl]-6-[3-methylimidazo[1,2-a]pyridin-6-yl]-5-(1,3-oxazol-2-yl)pyrazine-2-carboxamide]	1030	7540	33	1.6				
COc1ccccc1CNC(=O)c1nc(-c2cc(C)nc(N)c2)c(-c2ccc(F)cc2)nc1N [Example 83, 3-amino-6-(2-amino-6-methylpyridin-4-yl)-5-(4-fluorophenyl)-N-(2-methoxybenzyl)pyrazine-2-carboxamide]	547	132	116	2				
COC[C@H]1CCCN1C(=O)c1nc(-c2ccc3ncc(C)n3c2)c(-c2ccc(F)cc2)nc1N [Example 204-1, (R)-(3-amino-5-(4-fluorophenyl)-6-(3-methylimidazo[1,2-a]pyridin-6-yl)pyrazin-2-yl)(2-(methoxymethyl)pyrrolidin-1-yl)methanone]	> 10000	294	249	49				
CNCCOc1cccnc1CNC(=O)c1nc(-c2ccc3ncc(C)n3c2)c(-c2ccc(F)cc2)nc1N [Cmpd. 199, 3-amino-5-(4-fluorophenyl)-N-([3-[2-(methylamino)ethoxy]pyridin-2-yl]methyl)-6-[3-methylimidazo[1,2-a]pyridin-6-yl]pyrazine-2-carboxamide]	102	34	1.6	0.7				
Cc1cnc2ccc(-c3nc(C(=O)N[C@@H]4CCCOC4)c(N)nc3-c3ncco3)cn12 (single isomer, unassigned; isomer 2) [Example 164, 3-amino-6-(3-methylimidazo[1,2-a]pyridin-6-yl)-5-(oxazol-2-yl)-N-(tetrahydro-2H-pyran-3-yl)pyrazine-2-carboxamide (isomer 2)]	479	> 10000	12.7	0.94				
CN(C)CCOc1cccnc1CNC(=O)c1nc(-c2ccc3ncn(C)c3c2)c(-c2ccc(F)cc2)nc1N [Example 116, 3-amino-N-([3-[2-(dimethylamino)ethoxy]pyridin-2-yl]methyl)-5-(4-fluorophenyl)-6-(1-methyl-1H-1,3-benzodiazol-6-yl)pyrazine-2-carboxamide]					6020	61	17	9.6
Cc1cnc2ccc(-c3nc(CNC(=O)[C@@H]4CCCN4C)c(N)nc3-c3ccc(F)cc3)cn12 [Example 156, (2S)—N-[[3-amino-5-(4-fluorophenyl)-6-[3-methylimidazo[1,2-a]pyridin-6-yl]pyrazin-2-yl]methyl]-1-methylpyrrolidine-2-carboxamide]	1200	83	41	4.4				
Cc1cnc2ccc(-c3nc(C(=O)NCCN(C)C)c(N)nc3-c3ncco3)cn12 [Example 153, 3-amino-N-(2-(dimethylamino)ethyl)-6-(3-methylimidazo[1,2-a]pyridin-6-yl)-5-(oxazol-2-yl)pyrazine-2-carboxamide]	592	10000	120	19				
Cc1cnc2ccc(-c3nc(C(=O)NCC4CCCCO4)c(N)nc3-c3ncco3)cn12 (single isomer, unassigned; isomer 2) [Example 166, 3-amino-6-(3-methylimidazo[1,2-a]pyridin-6-yl)-5-(oxazol-2-yl)-N-((tetrahydro-2H-pyran-2-yl)methyl) pyrazine-2-carboxamide (isomer 2)]	47	358	1.48	0.24				
Cc1cnc2ccc(-c3nc(C(=O)NCC4CC(=O)N(C)C4)c(N)nc3-c3ncco3)cn12 (single isomer, unassigned; isomer 1) [Example 213, 3-amino-N-((1-methyl-5-oxopyrrolidin-3-yl)methyl)-6-(3-methylimidazo[1,2-ajpyridin-6-yl)-5-(oxazol-2-yl)pyrazine-2-carboxamide (isomer 1)]	2530	505	54	22				
Cn1cc(-c2nc(CNC(=O)c3c(F)cccc3C(F)(F)F)c(N)nc2-c2ccc(F)cc2)ccc1=O [Example 7, N-[[3-amino-5-(4-fluorophenyl)-6-(1-methyl-6-oxo-1,6-dihydropyridin-3-yl)pyrazin-2-yl]methyl]-2-fluoro-6-(trifluoromethyl)benzamide]	3860	98	237	166				
Cc1cc(-c2nc(C(=O)NCc3ncccc3OC(F)F)c(N)nc2-c2ccc(F)cc2)cc(C)n1 [Example 57, 3-amino-N-((3-(difluoromethoxy)pyridin-2-yl)methyl)-6-(2,6-dimethylpyridin-4-yl)-5-(4-fluorophenyl)pyrazine-2-carboxamide]					1680	142	278	41
COc1ccccc1CNC(=O)c1nc(-c2cc(C)nc(C)c2)c(-n2cccn2)nc1N [Example 56, 3-amino-6-(2,6-dimethylpyridin-4-yl)-N-(2-methoxybenzyl)-5-(1H-pyrazol-1-yl)pyrazine-2-carboxamide]	≥ 10000	940	623	28				
Cc1scnc1CNC(=O)c1nc(-c2ccc3nccn3c2)c(-c2ncco2)nc1N [Example 94, 3-amino-6-[imidazo[1,2-a]pyridin-6-yl]-N-[(5-methyl-1,3-thiazol-4-yl)methyl]-5-(1,3-oxazol-2-yl)pyrazine-2-carboxamide]	76	2960	34	3.9				
